Reference: patent publication US20100047371A1, “COMPOSITIONS AND METHODS FOR ORAL CANCER CHEMOPREVENTION USING BERRY PREPARATIONS AND EXTRACTS” (priority 2006, published 2010)
Each block holds one compound with its values, some of them ahead of it.

Tests used:
[1] = Human pharmacokinetic study: anthocyanins in saliva and peripheral blood after topical gel application; format: in vivo; conditions: for number of donors with detectable levels in peripheral blood: of nine participants, 5% berry gel (pH 6.5), five minutes after application; for Anthocyanin concentration in saliva / Anthocyanin concentration in peripheral blood: 1.0 g 5% FBR Gel, pH 6.5 topical to floor of mouth; for Anthocyanin concentration in saliva: saliva collected 2-5 min after application; for Anthocyanin concentration in peripheral blood: blood drawn five minutes after application
Protocol: Anthocyanin content in sera, saliva, and tissue explants was evaluated by an HPLC-MS assay. The respective samples (sera, saliva or tissue homogenates) were dissolved in 90% solvent A (water plus 1% formic acid) and 10% solvent B (acetonitrile plus 1% formic acid) and then separated on a Symmetry C18 reversed-phase column and analyzed using a Waters 2695 gradient HPLC separation module equipped with a 996 photodiode-array (PDA) UV/visible absorbance detector (Milford, Mass.). The solvent system consisted of a step gradient from 90% A to 50% B over 15 minutes, and the absorption spectra were recorded from 200-800 nm with the inline PDA detector. Mass spectrometry was conducted on a quadrupole ion tunnel mass spectrometer equipped with a Z-spray ESI source. Explant protein levels were determined by the Lowry method, using bovine γ-globulin as the standard protein [Lippman et al., 1993].
Next, evaluation of anthocyanin uptake into human oral mucosa from FBR gels prepared as described in Example 1 was undertaken. For in-vivo studies, participation of human subjects was conducted in accordance with an IRB approved protocol. […] For the phamacokinetic analyses, nine consenting adult volunteers dried the anterior floor of their mouth, placed 1.0 g of 5% berry gel (pH 6.5), and massaged the gel in place for 30 seconds to facilitate uptake. Two minutes after gel application saliva was collected for the next three minutes. Peripheral blood was drawn five minutes after gel application. Following clotting, sera samples were collected, and both the sera and saliva samples were stored at −80° C. until LC-MS analysis as described below.
All nine participants had detectable anthocyanin levels of three anthocyanins (cyanidin 3-rutinoside, cyanidin 3-xylosylrutinoside, cyanidin 3-glucoside) in either their saliva or blood, and 4 donors had detectable levels of two anthocyanins (cyanidin 3-rutinoside and cyanidin 3-xylosylrutinoside) in their peripheral blood. Saliva from eight of the nine donors contained detectable levels of either two (cyanidin 3-rutinoside and cyanidin 3-xylosylrutinoside-4 donors) or three anthocyanins (4 donors).

[2] = system: Human Oral Mucosa Explant Tissues; assay: Effect of final gel pH on anthocyanin uptake into human oral mucosa explant tissues; format: in vitro ADME; conditions: 10% w/w FBR gel; for Anthocyanin uptake, Gel pH 3.5, Avg. ± SEM / Anthocyanin uptake, Gel pH 6.5, Avg. ± SEM: average of eleven explant samples; for % change 3.5 to 6.5, Avg. ± SEM: average of explant samples
Protocol: Anthocyanin content in sera, saliva, and tissue explants was evaluated by an HPLC-MS assay. The respective samples (sera, saliva or tissue homogenates) were dissolved in 90% solvent A (water plus 1% formic acid) and 10% solvent B (acetonitrile plus 1% formic acid) and then separated on a Symmetry C18 reversed-phase column and analyzed using a Waters 2695 gradient HPLC separation module equipped with a 996 photodiode-array (PDA) UV/visible absorbance detector (Milford, Mass.). The solvent system consisted of a step gradient from 90% A to 50% B over 15 minutes, and the absorption spectra were recorded from 200-800 nm with the inline PDA detector. Mass spectrometry was conducted on a quadrupole ion tunnel mass spectrometer equipped with a Z-spray ESI source. Explant protein levels were determined by the Lowry method, using bovine γ-globulin as the standard protein [Lippman et al., 1993]. Tissue explants, specifically human oral mucosal explants, were used to determine the in vitro effects of FBR content and pH on anthocyanin uptake. Human oral tissues for the tissue explant studies were obtained from consenting volunteers who were undergoing elective oral surgery procedures. To confirm “no pathologic diagnosis”, a portion of each of these tissues was submitted for light microscopic evaluation. […] Tissues for explant experiments were immediately placed in an artificial saliva transport medium, which also served as the incubation medium for the gel absorption studies. The composition of the artificial saliva used for tissue transport and incubation was (final concentrations): sodium carboxymethylcellulose (0.5%), sorbitol (165 mM), NaCl (14 mM), KCl (16 mM), calcium chloride dehydrate (1.0 mM), MgCl2 (0.63 mM), Trizma hydrochloride (2.0 mM). Tissues from eight donors were used for preliminary studies to compare the penetration of anthocyanins from the 5% berry gel and the 10% FBR gel, both at a final pH of 6.5. In order to account for heterogeneity among human donors, tissue samples were hemisected. One tissue portion treated with 5% and the other with 10% FBR gels. One gram of gel (containing either 5% or 10% w/w FBR) was placed on the epithelial surface of the explant, followed by gently rubbing of the site for 30 seconds to facilitate uptake. Explants were then placed into artificial saliva, incubated for 30 minutes (37° C., 5% CO2), and then frozen at −80° C. until HPLC-mass spectroscopy analyses as previously reported [Rodrigo et al., in press]. Tissue preparation for HPLC analyses consisted of homogenization of the entire oral mucosal specimen, removal of an aliquot for sample protein level determination, followed by the addition of collagenase type II (0.1 mg/mL, GIBCO, Grand Island, N.Y.) and 1% formic acid. Samples were then placed on a Sep Pack (Millipore, Billerica, Mass.), eluted with methanol, and dried under argon gas. Additional oral mucosal explant studies were conducted to compare the effect of FBR gel pH on absorption into oral mucosal explants. Tissues from eleven donors were used for these studies, and handling was as described above with the exception that all gels contained 10% w/w FBR and were formulated at a final pH of 3.5 or 6.5. […] Large differences (up to 15-fold) in detectable anthocyanin levels were found in the gel treated donor tissues; findings that likely reflect the extensive heterogeneity within human tissues that affects tissue penetrative abilities.

number of donors with detectable levels in peripheral blood [1]: 4 donors
Anthocyanin concentration in saliva ([1]; patient 101): 3.5 pmol/mL
Anthocyanin concentration in saliva ([1]; patient 102): 1.7 pmol/mL
Anthocyanin concentration in peripheral blood ([1]; patient 103): 2.3 pmol/mL
Anthocyanin concentration in saliva ([1]; patient 104): 4.6 pmol/mL
Anthocyanin concentration in peripheral blood ([1]; patient 105): 7.4 pmol/mL
Anthocyanin concentration in saliva ([1]; patient 105): 8.3 pmol/mL
Anthocyanin concentration in peripheral blood ([1]; patient 106): 5.6 pmol/mL
Anthocyanin concentration in saliva ([1]; patient 106): 6.1 pmol/mL
Anthocyanin concentration in peripheral blood ([1]; patient 107): 5.8 pmol/mL
Anthocyanin concentration in saliva ([1]; patient 107): 9.3 pmol/mL
Anthocyanin concentration in saliva ([1]; patient 108): 4.2 pmol/mL
Anthocyanin concentration in saliva ([1]; patient 109): 2.2 pmol/mL
Anthocyanin uptake, Gel pH 3.5, Avg. ± SEM [2]: 31.9 pmol per mg tissue
Anthocyanin uptake, Gel pH 6.5, Avg. ± SEM [2]: 113.0 pmol per mg tissue
% change 3.5 to 6.5, Avg. ± SEM [2]: 956.3%
% change 3.5 to 6.5 ([2]; explant sample 001): 474.1%
Anthocyanin uptake, Gel pH 3.5 ([2]; explant sample 001): 116.4 pmol per mg tissue
Anthocyanin uptake, Gel pH 6.5 ([2]; explant sample 001): 668.3 pmol per mg tissue
% change 3.5 to 6.5 ([2]; explant sample 002): 627.2%
Anthocyanin uptake, Gel pH 3.5 ([2]; explant sample 002): 9.3 pmol per mg tissue
Anthocyanin uptake, Gel pH 6.5 ([2]; explant sample 002): 67.8 pmol per mg tissue
% change 3.5 to 6.5 ([2]; explant sample 003): −14.8%
Anthocyanin uptake, Gel pH 3.5 ([2]; explant sample 003): 34.3 pmol per mg tissue
Anthocyanin uptake, Gel pH 6.5 ([2]; explant sample 003): 29.2 pmol per mg tissue
% change 3.5 to 6.5 ([2]; explant sample 004): −64.4%
Anthocyanin uptake, Gel pH 3.5 ([2]; explant sample 004): 26.3 pmol per mg tissue
Anthocyanin uptake, Gel pH 6.5 ([2]; explant sample 004): 9.4 pmol per mg tissue
% change 3.5 to 6.5 ([2]; explant sample 005): −20.0%
Anthocyanin uptake, Gel pH 3.5 ([2]; explant sample 005): 3.5 pmol per mg tissue
Anthocyanin uptake, Gel pH 6.5 ([2]; explant sample 005): 2.8 pmol per mg tissue
% change 3.5 to 6.5 ([2]; explant sample 006): 362.1%
Anthocyanin uptake, Gel pH 3.5 ([2]; explant sample 006): 45.7 pmol per mg tissue
Anthocyanin uptake, Gel pH 6.5 ([2]; explant sample 006): 211.1 pmol per mg tissue
% change 3.5 to 6.5 ([2]; explant sample 007): 45.1%
Anthocyanin uptake, Gel pH 3.5 ([2]; explant sample 007): 5.6 pmol per mg tissue
Anthocyanin uptake, Gel pH 6.5 ([2]; explant sample 007): 8.1 pmol per mg tissue
% change 3.5 to 6.5 ([2]; explant sample 008): 8905.1%
Anthocyanin uptake, Gel pH 3.5 ([2]; explant sample 008): 0.4 pmol per mg tissue
Anthocyanin uptake, Gel pH 6.5 ([2]; explant sample 008): 35.1 pmol per mg tissue
% change 3.5 to 6.5 ([2]; explant sample 009): 395.1%
Anthocyanin uptake, Gel pH 3.5 ([2]; explant sample 009): 43.9 pmol per mg tissue
Anthocyanin uptake, Gel pH 6.5 ([2]; explant sample 009): 207.4 pmol per mg tissue
% change 3.5 to 6.5 ([2]; explant sample 010): −91.4%
Anthocyanin uptake, Gel pH 3.5 ([2]; explant sample 010): 37.1 pmol per mg tissue
Anthocyanin uptake, Gel pH 6.5 ([2]; explant sample 010): 3.2 pmol per mg tissue
% change 3.5 to 6.5 ([2]; explant sample 011): −98.7%
Anthocyanin uptake, Gel pH 3.5 ([2]; explant sample 011): 28.7 pmol per mg tissue
Anthocyanin uptake, Gel pH 6.5 ([2]; explant sample 011): 0.4 pmol per mg tissue
Compound: C[C@@H]1O[C@@H](OC[C@H]2O[C@@H](Oc3cc4c(O)cc(O)cc4[o+]c3-c3ccc(O)c(O)c3)[C@H](O)[C@@H](O)[C@@H]2O)[C@H](O)[C@H](O)[C@H]1O [cyanidin 3-rutinoside]

number of donors with detectable levels in peripheral blood [1]: 4 donors
Anthocyanin concentration in saliva ([1]; patient 101): 2.0 pmol/mL
Anthocyanin concentration in saliva ([1]; patient 102): 0.5 pmol/mL
Anthocyanin concentration in peripheral blood ([1]; patient 103): 0.6 pmol/mL
Anthocyanin concentration in saliva ([1]; patient 104): 1.5 pmol/mL
Anthocyanin concentration in peripheral blood ([1]; patient 105): 1.1 pmol/mL
Anthocyanin concentration in saliva ([1]; patient 105): 2.3 pmol/mL
Anthocyanin concentration in peripheral blood ([1]; patient 106): 0.8 pmol/mL
Anthocyanin concentration in saliva ([1]; patient 106): 1.9 pmol/mL
Anthocyanin concentration in peripheral blood ([1]; patient 107): 1.3 pmol/mL
Anthocyanin concentration in saliva ([1]; patient 107): 1.7 pmol/mL
Anthocyanin concentration in saliva ([1]; patient 108): 1.0 pmol/mL
Anthocyanin concentration in saliva ([1]; patient 109): 1.2 pmol/mL
Anthocyanin uptake, Gel pH 3.5, Avg. ± SEM [2]: 5.4 pmol per mg tissue
Anthocyanin uptake, Gel pH 6.5, Avg. ± SEM [2]: 17.4 pmol per mg tissue
% change 3.5 to 6.5, Avg. ± SEM [2]: 140.6%
% change 3.5 to 6.5 ([2]; explant sample 001): 522.5%
Anthocyanin uptake, Gel pH 3.5 ([2]; explant sample 001): 14.2 pmol per mg tissue
Anthocyanin uptake, Gel pH 6.5 ([2]; explant sample 001): 88.1 pmol per mg tissue
% change 3.5 to 6.5 ([2]; explant sample 002): 747.1%
Anthocyanin uptake, Gel pH 3.5 ([2]; explant sample 002): 1.2 pmol per mg tissue
Anthocyanin uptake, Gel pH 6.5 ([2]; explant sample 002): 10.3 pmol per mg tissue
% change 3.5 to 6.5 ([2]; explant sample 003): 12.1%
Anthocyanin uptake, Gel pH 3.5 ([2]; explant sample 003): 5.7 pmol per mg tissue
Anthocyanin uptake, Gel pH 6.5 ([2]; explant sample 003): 6.4 pmol per mg tissue
% change 3.5 to 6.5 ([2]; explant sample 004): −65.1%
Anthocyanin uptake, Gel pH 3.5 ([2]; explant sample 004): 3.6 pmol per mg tissue
Anthocyanin uptake, Gel pH 6.5 ([2]; explant sample 004): 1.3 pmol per mg tissue
% change 3.5 to 6.5 ([2]; explant sample 005): −45.9%
Anthocyanin uptake, Gel pH 3.5 ([2]; explant sample 005): 0.9 pmol per mg tissue
Anthocyanin uptake, Gel pH 6.5 ([2]; explant sample 005): 0.5 pmol per mg tissue
% change 3.5 to 6.5 ([2]; explant sample 006): 258.5%
Anthocyanin uptake, Gel pH 3.5 ([2]; explant sample 006): 9.9 pmol per mg tissue
Anthocyanin uptake, Gel pH 6.5 ([2]; explant sample 006): 35.5 pmol per mg tissue
% change 3.5 to 6.5 ([2]; explant sample 007): −9.4%
Anthocyanin uptake, Gel pH 3.5 ([2]; explant sample 007): 1.1 pmol per mg tissue
Anthocyanin uptake, Gel pH 6.5 ([2]; explant sample 007): 1.0 pmol per mg tissue
Anthocyanin uptake, Gel pH 3.5 ([2]; explant sample 008): 0.0 pmol per mg tissue
Anthocyanin uptake, Gel pH 6.5 ([2]; explant sample 008): 6.3 pmol per mg tissue
% change 3.5 to 6.5 ([2]; explant sample 009): 318.4%
Anthocyanin uptake, Gel pH 3.5 ([2]; explant sample 009): 9.9 pmol per mg tissue
Anthocyanin uptake, Gel pH 6.5 ([2]; explant sample 009): 41.3 pmol per mg tissue
% change 3.5 to 6.5 ([2]; explant sample 010): −91.9%
Anthocyanin uptake, Gel pH 3.5 ([2]; explant sample 010): 6.7 pmol per mg tissue
Anthocyanin uptake, Gel pH 6.5 ([2]; explant sample 010): 0.5 pmol per mg tissue
% change 3.5 to 6.5 ([2]; explant sample 011): −100%
Anthocyanin uptake, Gel pH 3.5 ([2]; explant sample 011): 6.0 pmol per mg tissue
Anthocyanin uptake, Gel pH 6.5 ([2]; explant sample 011): 0.00 pmol per mg tissue
Compound: CC1OC(OCC2OC(Oc3cc4c(O)cc(O)cc4[o+]c3-c3ccc(O)c(O)c3)C(OC3OCC(O)C(O)C3O)C(O)C2O)C(O)C(O)C1O (stereo not shown) [cyanidin 3-xylosylrutinoside]
